Measurements: PubChem BioAssay (NCI)
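How tested: cells in 96-well plates exposed to compound for 48 hours at five concentrations. TGI is the concentration that stops growth completely.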

Tests used:
Test in all cases: DTP human tumour cell line panel, 48 h
SNB-75 CNS = test system: SNB-75 CNS
CCRF-CEM leukemia = test system: CCRF-CEM leukemia
HCT-15 colon = test system: HCT-15 colon
KM12 colon = test system: KM12 colon
TK-10 renal = test system: TK-10 renal
A549 NSCLC = test system: A549 NSCLC
OVCAR-4 ovarian = test system: OVCAR-4 ovarian
OVCAR-8 ovarian = test system: OVCAR-8 ovarian
DU-145 prostate = test system: DU-145 prostate
SR leukemia = test system: SR leukemia
HOP-62 NSCLC = test system: HOP-62 NSCLC
CAKI-1 renal = test system: CAKI-1 renal
HS 578T breast = test system: HS 578T breast
SK-MEL-5 melanoma = test system: SK-MEL-5 melanoma
SW-620 colon = test system: SW-620 colon
MALME-3M melanoma = test system: MALME-3M melanoma
BT-549 breast = test system: BT-549 breast
EKVX NSCLC = test system: EKVX NSCLC
SN12C renal = test system: SN12C renal
A498 renal = test system: A498 renal
HOP-92 NSCLC = test system: HOP-92 NSCLC
T-47D breast = test system: T-47D breast
M14 melanoma = test system: M14 melanoma
IGROV1 ovarian = test system: IGROV1 ovarian
UACC-62 melanoma = test system: UACC-62 melanoma
UO-31 renal = test system: UO-31 renal
HL-60(TB) leukemia = test system: HL-60(TB) leukemia
NCI-H522 lung = test system: NCI-H522 lung
NCI/ADR-RES ovarian = test system: NCI/ADR-RES ovarian
COLO 205 colon = test system: COLO 205 colon
SK-MEL-28 melanoma = test system: SK-MEL-28 melanoma
UACC-257 melanoma = test system: UACC-257 melanoma
MCF7 breast = test system: MCF7 breast
U251 CNS = test system: U251 CNS
786-0 renal = test system: 786-0 renal
HCC-2998 colon = test system: HCC-2998 colon
K-562 leukemia = test system: K-562 leukemia
PC-3 prostate = test system: PC-3 prostate
HCT-116 colon = test system: HCT-116 colon
MDA-N = test system: MDA-N
RXF 393 renal = test system: RXF 393 renal
RPMI-8226 leukemia = test system: RPMI-8226 leukemia
SF-268 CNS = test system: SF-268 CNS
SK-MEL-2 melanoma = test system: SK-MEL-2 melanoma
OVCAR-5 ovarian = test system: OVCAR-5 ovarian
SF-539 CNS = test system: SF-539 CNS
HT29 colon = test system: HT29 colon
LOX IMVI melanoma = test system: LOX IMVI melanoma
MDA-MB-435 = test system: MDA-MB-435
ACHN renal = test system: ACHN renal
NCI-H226 lung = test system: NCI-H226 lung
SNB-19 CNS = test system: SNB-19 CNS
NCI-H23 lung = test system: NCI-H23 lung
NCI-H460 lung = test system: NCI-H460 lung
OVCAR-3 ovarian = test system: OVCAR-3 ovarian
SF-295 CNS = test system: SF-295 CNS
MDA-MB-231 breast = test system: MDA-MB-231 breast
SK-OV-3 ovarian = test system: SK-OV-3 ovarian
MOLT-4 leukemia = test system: MOLT-4 leukemia

Measured: TGI

COC(=O)c1c(C)cccc1C1CN=NC12Cc1cccc(C)c1C2=O (centres undefined)
47.6 µM: HOP-92 NSCLC
98.4 µM: NCI-H226 lung
71.1 µM: CCRF-CEM leukemia | PC-3 prostate
44.5 µM: SF-539 CNS
57.7 µM: UACC-257 melanoma
40.1 µM: SK-MEL-5 melanoma
88.6 µM: BT-549 breast
25.5 µM: M14 melanoma
94.7 µM: SK-MEL-2 melanoma
33.6 µM: HL-60(TB) leukemia
75.7 µM: NCI-H522 lung
66.8 µM: A549 NSCLC
67.7 µM: UO-31 renal
32.7 µM: LOX IMVI melanoma
79.5 µM: K-562 leukemia
45.1 µM: NCI-H460 lung
74 µM: UACC-62 melanoma
87.2 µM: MALME-3M melanoma
not listed: OVCAR-3 ovarian | SF-295 CNS | MDA-MB-231 breast | SK-OV-3 ovarian | MOLT-4 leukemia
> 100 µM: all other assays above

CCCCNC(=S)Nc1nc(C(=O)NNC(=S)NCc2ccccc2)cs1
27.5 µM: SR leukemia
70.2 µM: SK-MEL-5 melanoma
78.5 µM: ACHN renal
83.9 µM: UACC-257 melanoma
68.6 µM: SF-539 CNS
59.3 µM: T-47D breast
90.1 µM: CAKI-1 renal
not listed: SNB-75 CNS | CCRF-CEM leukemia | HS 578T breast | HOP-92 NSCLC | HL-60(TB) leukemia | SK-MEL-28 melanoma | RXF 393 renal | SNB-19 CNS | NCI-H460 lung
> 100 µM: all other assays above

Cc1cn(C2CC(SCCO)C(CO)O2)c(=O)[nH]c1=O (centres undefined)
not listed: TK-10 renal | HS 578T breast | SK-MEL-5 melanoma | LOX IMVI melanoma
> 100 µM: all other assays above
